Values of other authors as cited in patent US11353469B2, “Nontoxic compounds for use as taggants in nutritional and pharmaceutical products” (Hall Labs, LLC, priority 2019, dated 2022).
Like-named read-outs stand apart in the source and are kept apart here.

Conditions: for amount recoverable in urine: single dose of 1 g/kg body weight

time after administration at which DMSO has been detected in urine (applied topically): 2 h
time after administration at which compound could be detected in urine (orally administered): 30 min
time of peak excretion in urine (orally administered): ≤ 4 h
amount recoverable in urine (administered orally): 30-68%
amount recoverable in urine (applied topically): 13%
SMILES: C[S+](C)[O-] [DMSO, dimethylsulfoxide]
